The record followed here is PubChem BioAssay (NCI).

Test systems include ACHN renal; SNB-19 CNS; SF-295 CNS; HL-60(TB) leukemia; K-562 leukemia; SF-539 CNS; TK-10 renal; BT-549 breast; HOP-92 NSCLC; PC-3 prostate.
Holding throughout (assay): NCI anticancer screen, dose series, 48 h

Several values for one entry are separate records, joined by “and”; a condition that tells them apart may be missing. Identical values can stand only once.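 Method: 48-hour compound exposure of cells in 96-well plates, five concentrations, linear interpolation of endpoints. GI50 = concentration required for 50% inhibition of growth. Definition used: TGI = concentration required for complete inhibition of growth.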

As for `CCC1(N2C(=O)c3c(F)c(F)c(F)c(F)c3C2=O)C(=O)NC(=O)N(c2ccccc2)C1=O` (stereo not drawn), the GI50 is 4.02 µM in the test with ACHN renal; 3.93 µM in the test on SNB-19 CNS; 2.57 µM in the test on SF-295 CNS; 2.67 µM in the test on HL-60(TB) leukemia; 2.31 µM in the test on K-562 leukemia; 2.24 µM with SF-539 CNS. Besides, the GI50 in the test with TK-10 renal was 2.4 µM; with BT-549 breast, 2.1 µM; in the test on HOP-92 NSCLC, 2.01 µM; in the test on PC-3 prostate, 2.28 µM. Moreover, the TGI was determined as 14.9 µM with ACHN renal; 16.9 µM with SNB-19 CNS; 7.55 µM in the test on SF-295 CNS; 4.57 µM in the test with HL-60(TB) leukemia; 5.23 µM with K-562 leukemia; 4.33 µM in the test with SF-539 CNS. For the same molecule, the TGI in the test on TK-10 renal turned out to be 5.57 µM; in the test with BT-549 breast it was 4.76 µM; in the test on HOP-92 NSCLC, 4.17 µM; in the test on PC-3 prostate, 16 µM.

Regarding `CC(=O)N[C@@H]1CCC[C@H](C(=O)Nc2cc(-c3cnn4c3CC(C)(C)C4)c(Cl)cn2)C1`, the GI50 with ACHN renal was less than 0.015 µM; in the test with SNB-19 CNS, less than 0.01 µM; with SF-295 CNS it was less than 0.0125 µM; with HL-60(TB) leukemia, less than 0.01 µM; with K-562 leukemia, 0.0212 µM; in the test on SF-539 CNS, less than 0.01 µM. In addition, the GI50 with TK-10 renal, with BT-549 breast, in the test with HOP-92 NSCLC and in the test on PC-3 prostate was less than 0.01 µM each time. The TGI is more than 100 µM with ACHN renal; more than 100 µM in the test with SNB-19 CNS; more than 100 µM in the test on SF-295 CNS; less than 0.017 µM with HL-60(TB) leukemia; more than 100 µM in the test on K-562 leukemia; 0.0187 µM with SF-539 CNS. Moreover, the TGI in the test on TK-10 renal was more than 100 µM; with BT-549 breast it was 0.0499 µM; in the test with HOP-92 NSCLC, 0.0389 µM; in the test on PC-3 prostate, more than 100 µM.

Take `O=C(NO)C(O)C(O)C(O)C(O)CO` (stereo not drawn): the GI50 in the test with ACHN renal is more than 100 µM; with SNB-19 CNS, more than 100 µM; in the test on HL-60(TB) leukemia, more than 21.5 µM; in the test with K-562 leukemia, > 87.6 µM and 47.1 µM; in the test with SF-539 CNS, more than 100 µM; in the test with TK-10 renal, more than 100 µM. The GI50 in the test with BT-549 breast, in the test on HOP-92 NSCLC and with PC-3 prostate was more than 100 µM in each case. Further, the TGI in the test on ACHN renal is more than 100 µM; in the test on SNB-19 CNS it was more than 100 µM; with SF-295 CNS it was more than 100 µM; in the test on HL-60(TB) leukemia, more than 21.5 µM; in the test with K-562 leukemia it was more than 100 µM; in the test on SF-539 CNS it was more than 100 µM. The TGI with TK-10 renal, with BT-549 breast, in the test on HOP-92 NSCLC and with PC-3 prostate was more than 100 µM each time.

Consider `CCCCCCCCCCCCCCCC(=O)OCC1OC(n2ccc(N)nc2=O)C(O)C1O` (stereo not drawn), for which the TGI in the test on ACHN renal was more than 44.2 µM; in the test with SNB-19 CNS, more than 100 µM; in the test on SF-295 CNS, more than 100 µM; with HL-60(TB) leukemia, more than 61.8 µM; with K-562 leukemia, more than 100 µM; in the test on SF-539 CNS, more than 100 µM. Besides, the TGI in the test with TK-10 renal, in the test on BT-549 breast, in the test on HOP-92 NSCLC and in the test with PC-3 prostate was more than 100 µM throughout.

Consider `C=C(CC1(CC(=C)c2ccc(C(=O)O)cc2)C(=O)N(C)C(=O)N(C)C1=O)c1ccc(C(=O)O)cc1`, for which the GI50 is more than 100 µM in the test with ACHN renal; more than 100 µM in the test with SNB-19 CNS; more than 100 µM in the test on SF-295 CNS; 34.4 µM in the test with HL-60(TB) leukemia; 35.9 µM in the test with K-562 leukemia; more than 100 µM in the test on SF-539 CNS. Also, the GI50 is 16 µM with TK-10 renal, more than 100 µM in the test on BT-549 breast, 78.4 µM in the test on HOP-92 NSCLC and 63.2 µM in the test on PC-3 prostate. Moreover, the TGI in the test with ACHN renal, with SNB-19 CNS, in the test with SF-295 CNS, in the test with HL-60(TB) leukemia, in the test with K-562 leukemia and in the test with SF-539 CNS was more than 100 µM each time. Besides, the TGI in the test on TK-10 renal, in the test on BT-549 breast, in the test on HOP-92 NSCLC and in the test on PC-3 prostate was more than 100 µM throughout.

Take `O=C(CN=Cc1cccs1)CSC(c1ccccc1)c1ccccc1`: the GI50 with ACHN renal was 28.8 µM; with SNB-19 CNS, 32.5 µM; in the test with SF-295 CNS, 35.1 µM; in the test with HL-60(TB) leukemia, 18.9 µM; with K-562 leukemia it was 15.8 µM; in the test with SF-539 CNS, 26.6 µM. The GI50 with TK-10 renal was 30.5 µM; with BT-549 breast, 18.4 µM; with HOP-92 NSCLC, 20.7 µM; with PC-3 prostate, 17.5 µM. In addition, the TGI in the test with ACHN renal was 79.6 µM; with SNB-19 CNS, more than 100 µM; in the test on SF-295 CNS, more than 100 µM; in the test with HL-60(TB) leukemia, 41.9 µM; in the test on K-562 leukemia, 54.1 µM; with SF-539 CNS, 71.1 µM. The TGI was more than 100 µM in the test with TK-10 renal, 40 µM in the test with BT-549 breast, 51.1 µM with HOP-92 NSCLC and 47.9 µM in the test on PC-3 prostate.

Take `COC1C(CO)OC(n2c3ccccc3c3c4c(c5c6ccccc6[nH]c5c32)C(=O)NC4=O)C(O)C1OC(=O)C(N)CCCCN` (stereo not drawn): the GI50 in the test on ACHN renal was 0.713 µM; with SNB-19 CNS, 1.31 µM; in the test on SF-295 CNS it was 1.26 µM; in the test on HL-60(TB) leukemia, 0.231 µM; in the test on K-562 leukemia it was 0.414 µM; with SF-539 CNS, 0.165 µM. The GI50 was 1.81 µM in the test on TK-10 renal, 0.807 µM in the test on BT-549 breast, 1.54 µM in the test on HOP-92 NSCLC and 1.43 µM with PC-3 prostate. Moreover, the TGI is 3.51 µM in the test on ACHN renal; more than 50 µM in the test on SNB-19 CNS; 7.43 µM with SF-295 CNS; more than 50 µM in the test with HL-60(TB) leukemia; more than 50 µM in the test on K-562 leukemia; 0.821 µM with SF-539 CNS. In addition, the TGI in the test with TK-10 renal was 14.6 µM; in the test with BT-549 breast, 5.62 µM; in the test with HOP-92 NSCLC, 12.9 µM; in the test on PC-3 prostate it was more than 42.3 µM.

For the molecule `Cc1cc2c(cc1Cl)SC1=NN(C)C(c3ccccc3O)N1S2(=O)=O` (stereo not drawn), the GI50 was more than 100 µM in the test on ACHN renal; 86.7 µM in the test on SNB-19 CNS; 43.6 µM in the test with SF-295 CNS; more than 100 µM in the test with HL-60(TB) leukemia; more than 100 µM in the test on K-562 leukemia; 32.1 µM with SF-539 CNS. The GI50 with TK-10 renal is 82.1 µM; in the test with BT-549 breast, 95.2 µM; in the test on HOP-92 NSCLC, 37.6 µM; in the test with PC-3 prostate, more than 100 µM. Also, the TGI in the test with ACHN renal, in the test with SNB-19 CNS, in the test on SF-295 CNS, in the test on HL-60(TB) leukemia, in the test on K-562 leukemia and in the test with SF-539 CNS was more than 100 µM throughout. The TGI with TK-10 renal, in the test with BT-549 breast, in the test with HOP-92 NSCLC and in the test on PC-3 prostate was more than 100 µM throughout.

Consider `O=[N+]([O-])O.[NH-]C1CCCCC1[NH-].[NH-]C1CCCCC1[NH-].[NH-]C1CCCCC1[NH-].[OH-].[OH-].[OH-].[Pt+4].[Pt+4].[Pt+4]` (stereo not drawn), for which the GI50 is 0.164 µM in the test on ACHN renal; 1.06 µM with SNB-19 CNS; 0.971 µM in the test with SF-295 CNS; 1.09 µM in the test on HL-60(TB) leukemia; 0.452 µM in the test on K-562 leukemia; 1.31 µM in the test with SF-539 CNS. In addition, the GI50 in the test on TK-10 renal is 2.2 µM; in the test on BT-549 breast, 3.02 µM; with HOP-92 NSCLC it was 8.21 µM; in the test on PC-3 prostate, 0.756 µM. In addition, the TGI in the test on SNB-19 CNS was more than 58.9 µM; in the test with SF-295 CNS, more than 66.8 µM; in the test on HL-60(TB) leukemia, 4.01 µM; in the test with K-562 leukemia it was more than 100 µM; with SF-539 CNS, more than 68.8 µM; in the test with TK-10 renal it was 28.9 µM. For the same molecule, the TGI is more than 62.5 µM in the test on BT-549 breast, more than 61.2 µM with HOP-92 NSCLC and 40.9 µM in the test on PC-3 prostate.

As for `CC(=O)Nc1ccc(-n2cnc3cc(-c4ccc(OCCN5CCCCC5)cc4)ccc32)cc1`, the GI50 is 3.61 µM in the test on ACHN renal; 8.53 µM with SNB-19 CNS; 5.5 µM with SF-295 CNS; 5.26 µM in the test with HL-60(TB) leukemia; 0.944 µM with K-562 leukemia; 1.64 µM in the test with SF-539 CNS. Moreover, the GI50 was 9.11 µM with TK-10 renal, 4.88 µM with BT-549 breast, 4.51 µM with HOP-92 NSCLC and 3.91 µM in the test on PC-3 prostate. Also, the TGI in the test with ACHN renal is 11.4 µM; in the test with SNB-19 CNS, 33.1 µM; in the test with SF-295 CNS, 10.6 µM; in the test on HL-60(TB) leukemia it was 18.2 µM; in the test with K-562 leukemia, more than 33.3 µM; in the test on SF-539 CNS, 6.47 µM. The TGI in the test on TK-10 renal worked out at 15.9 µM; in the test with BT-549 breast it was 9.77 µM; in the test with HOP-92 NSCLC it was 11.6 µM; in the test with PC-3 prostate, 9.83 µM.

Regarding `O=C(CC(C(=O)O)N1CCOCC1)c1ccccc1` (stereo not drawn), the TGI in the test on ACHN renal is 30.7 µM; in the test on SNB-19 CNS it was 53.4 µM; in the test with SF-295 CNS it was more than 100 µM; in the test on HL-60(TB) leukemia, 43.6 µM; in the test with K-562 leukemia, 49.1 µM; with SF-539 CNS, 45.7 µM. In addition, the TGI in the test with TK-10 renal came out at 30.1 µM; in the test with BT-549 breast, 33.5 µM; with HOP-92 NSCLC it was 38 µM; in the test with PC-3 prostate, 36 µM.
